Test results from ChEMBL document CHEMBL2073844, “Pharmacological characterization of the murine and human orthologs of multidrug-resistance protein in transfected human embryonic kidney cells” (Mol Pharmacol, 1997).
Entries after “also recorded” stand apart in the source; their conditions may differ.

Tests used:
Type in all cases: functional, cell-based
[1] = molecular target: T1, Multidrug resistance-associated protein 1 (Mus musculus, UniProt O35379); assay: TP_TRANSPORTER: drug resistance in Mrp1-expressing HEK293 cells; conditions: human
[2] = molecular target: T2, Multidrug resistance-associated protein 1 (Homo sapiens, UniProt P33527); assay: TP_TRANSPORTER: drug resistance in MRP1-expressing HEK293 cells
[3] = molecular target: T1, Multidrug resistance-associated protein 1; assay: TP_TRANSPORTER: efflux in Mrp1-expressing HEK293 cells; conditions: human
[4] = molecular target: T2, Multidrug resistance-associated protein 1; assay: TP_TRANSPORTER: efflux in MRP1-expressing HEK293 cells

T2 sequence (P33527 whole entry): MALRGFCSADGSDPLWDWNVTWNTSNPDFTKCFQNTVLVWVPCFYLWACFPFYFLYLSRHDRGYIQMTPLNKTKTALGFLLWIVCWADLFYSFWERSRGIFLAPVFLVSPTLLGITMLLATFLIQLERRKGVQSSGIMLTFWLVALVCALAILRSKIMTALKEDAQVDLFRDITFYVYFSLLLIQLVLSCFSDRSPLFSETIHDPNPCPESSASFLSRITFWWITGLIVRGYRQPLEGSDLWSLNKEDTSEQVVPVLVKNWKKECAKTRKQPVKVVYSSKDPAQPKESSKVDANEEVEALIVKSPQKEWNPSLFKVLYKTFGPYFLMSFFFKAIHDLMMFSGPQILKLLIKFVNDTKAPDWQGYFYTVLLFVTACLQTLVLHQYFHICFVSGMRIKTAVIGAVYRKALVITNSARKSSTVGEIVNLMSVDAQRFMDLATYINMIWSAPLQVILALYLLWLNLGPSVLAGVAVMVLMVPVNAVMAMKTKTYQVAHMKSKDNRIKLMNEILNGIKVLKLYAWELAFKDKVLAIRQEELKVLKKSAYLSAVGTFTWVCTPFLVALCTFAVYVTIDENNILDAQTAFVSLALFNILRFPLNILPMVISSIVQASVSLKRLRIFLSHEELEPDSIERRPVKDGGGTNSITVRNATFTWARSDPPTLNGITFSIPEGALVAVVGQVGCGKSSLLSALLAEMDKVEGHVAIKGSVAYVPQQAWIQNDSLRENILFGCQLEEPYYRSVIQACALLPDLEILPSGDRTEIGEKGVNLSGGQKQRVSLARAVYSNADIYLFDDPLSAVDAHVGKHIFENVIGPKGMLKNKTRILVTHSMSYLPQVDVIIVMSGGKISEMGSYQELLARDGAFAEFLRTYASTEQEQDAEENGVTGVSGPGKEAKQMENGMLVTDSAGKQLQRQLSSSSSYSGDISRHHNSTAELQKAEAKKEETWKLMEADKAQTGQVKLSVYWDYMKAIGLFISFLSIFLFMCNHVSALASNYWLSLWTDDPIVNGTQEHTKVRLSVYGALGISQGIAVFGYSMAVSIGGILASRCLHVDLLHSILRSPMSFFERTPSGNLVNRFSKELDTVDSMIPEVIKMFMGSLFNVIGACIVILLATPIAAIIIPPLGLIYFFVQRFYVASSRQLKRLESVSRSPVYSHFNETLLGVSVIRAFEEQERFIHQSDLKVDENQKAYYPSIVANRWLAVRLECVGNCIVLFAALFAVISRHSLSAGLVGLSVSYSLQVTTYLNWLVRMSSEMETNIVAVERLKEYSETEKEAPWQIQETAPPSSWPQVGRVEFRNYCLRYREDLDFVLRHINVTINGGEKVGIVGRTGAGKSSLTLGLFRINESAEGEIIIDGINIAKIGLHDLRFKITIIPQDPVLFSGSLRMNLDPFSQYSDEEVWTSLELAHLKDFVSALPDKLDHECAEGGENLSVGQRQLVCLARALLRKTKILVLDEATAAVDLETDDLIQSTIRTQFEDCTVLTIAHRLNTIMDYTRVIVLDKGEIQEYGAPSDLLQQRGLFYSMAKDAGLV
T1 sequence (O35379 whole entry): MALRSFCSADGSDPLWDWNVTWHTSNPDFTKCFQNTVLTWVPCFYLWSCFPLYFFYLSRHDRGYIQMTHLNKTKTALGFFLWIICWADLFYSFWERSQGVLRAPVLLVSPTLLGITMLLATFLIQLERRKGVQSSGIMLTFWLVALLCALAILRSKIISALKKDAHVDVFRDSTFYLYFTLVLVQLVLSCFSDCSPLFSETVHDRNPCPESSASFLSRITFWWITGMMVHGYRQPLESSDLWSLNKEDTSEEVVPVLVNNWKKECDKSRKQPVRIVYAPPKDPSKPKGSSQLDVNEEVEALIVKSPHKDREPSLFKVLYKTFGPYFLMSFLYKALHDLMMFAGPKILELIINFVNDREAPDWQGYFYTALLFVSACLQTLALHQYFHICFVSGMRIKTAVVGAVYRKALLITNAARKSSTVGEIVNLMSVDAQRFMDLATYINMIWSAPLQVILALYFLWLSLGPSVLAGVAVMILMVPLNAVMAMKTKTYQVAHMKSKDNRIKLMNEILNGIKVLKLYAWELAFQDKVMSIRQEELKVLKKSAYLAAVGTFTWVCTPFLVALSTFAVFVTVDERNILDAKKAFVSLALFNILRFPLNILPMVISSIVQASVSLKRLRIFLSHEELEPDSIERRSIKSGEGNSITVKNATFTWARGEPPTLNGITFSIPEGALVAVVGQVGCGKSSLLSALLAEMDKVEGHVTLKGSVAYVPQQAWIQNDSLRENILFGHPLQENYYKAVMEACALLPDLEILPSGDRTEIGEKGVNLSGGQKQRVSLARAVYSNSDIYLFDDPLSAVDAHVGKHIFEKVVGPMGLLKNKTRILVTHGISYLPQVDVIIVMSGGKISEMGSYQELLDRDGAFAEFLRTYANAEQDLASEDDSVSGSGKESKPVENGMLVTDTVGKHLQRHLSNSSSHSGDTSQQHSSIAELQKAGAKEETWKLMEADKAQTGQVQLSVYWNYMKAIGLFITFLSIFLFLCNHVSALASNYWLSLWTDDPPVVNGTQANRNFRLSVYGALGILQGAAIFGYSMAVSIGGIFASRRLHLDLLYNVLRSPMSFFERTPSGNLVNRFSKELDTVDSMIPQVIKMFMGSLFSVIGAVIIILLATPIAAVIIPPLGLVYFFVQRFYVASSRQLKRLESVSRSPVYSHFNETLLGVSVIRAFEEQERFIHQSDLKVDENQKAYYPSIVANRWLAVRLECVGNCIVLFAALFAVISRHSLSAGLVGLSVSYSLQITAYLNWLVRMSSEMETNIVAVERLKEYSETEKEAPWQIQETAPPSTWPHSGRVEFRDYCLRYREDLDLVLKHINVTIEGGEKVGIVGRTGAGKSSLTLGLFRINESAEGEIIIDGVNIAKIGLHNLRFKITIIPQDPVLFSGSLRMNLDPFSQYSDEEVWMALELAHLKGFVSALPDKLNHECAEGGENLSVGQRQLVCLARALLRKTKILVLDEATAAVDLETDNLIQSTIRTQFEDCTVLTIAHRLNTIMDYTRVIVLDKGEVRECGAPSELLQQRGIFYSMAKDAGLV

SMILES | Activity [1] | Activity [2] | Activity [3] | Activity [4]
COc1cc2c(c(OC)c1OC)-c1ccc(OC)c(=O)cc1[C@@H](NC(C)=O)CC2 [COLCHICINE] | substrate [+]; also recorded: is not a substrate [-] |  |  | 
COc1cccc2c1C(=O)c1c(O)c3c(c(O)c1C2=O)C[C@@](O)(C(=O)CO)C[C@@H]3O[C@H]1C[C@H](N)[C@H](O)[C@H](C)O1 [DOXORUBICIN] | is not a substrate [-] | substrate [+] |  | 
COc1cccc2c1C(=O)c1c(O)c3c(c(O)c1C2=O)C[C@@](O)(C(=O)CO)C[C@@H]3O[C@H]1C[C@H](N)[C@@H](O)[C@H](C)O1 [EPIRUBICIN] | is not a substrate [-] | substrate [+] |  | 
COc1cc([C@@H]2c3cc4c(cc3[C@@H](O[C@@H]3O[C@@H]5CO[C@@H](C)O[C@H]5[C@H](O)[C@H]3O)[C@H]3COC(=O)[C@H]23)OCO4)cc(OC)c1O [ETOPOSIDE] |  |  | substrate [+] | substrate [+]
CC[C@]1(O)C[C@H]2CN(CCc3c([nH]c4ccccc34)[C@@](C(=O)OC)(c3cc4c(cc3OC)N(C=O)[C@H]3[C@@](O)(C(=O)OC)[C@H](OC(C)=O)[C@]5(CC)C=CCN6CC[C@]43[C@@H]65)C2)C1 [VINCRISTINE] |  |  | substrate [+] | 
